# Read-outs that look alike come from different tables or passages of the source.
# Experiments:
# [1] = target: rat brain opioid receptor; assay: Competition with [125I]b-endorphin for binding to rat brain membranes (analytical microtiter plate assay)
# Protocol: Whole male rat brains frozen in liquid N₂ are purchased from Pel-Freez (Rogers, AR). All procedures for membrane preparation are carried out at a temperature of 2-6 °C. The brains are homogenized in a Waring blender in a buffer containing 1 mM Na-bicarbonate (pH 7.2), 1 mM EDTA, 1 mM EGTA (all chemicals from Sigma Chemical, St. Louis, MO) and 0.7% (vol./vol.) of the 100X 4Pase protease inhibitor mixture (see "Protease Inhibitors" below). The ratio of tissue/homogenization medium is from 25-35 gm of brain/500 ml. The blender is controlled through a variable output rheostat (Staco Energy Products, Dayton, OH; type 3PN1010) at a setting of 40. The homogenate is centrifuged for 10 minutes at 1,000 x g pellet is rehomeginized in 500 ml of homogenization medium and recentrifuged for 10 minutes at 1,000 x g. The 1,000 x g pellet is discarded. The 1,000 x g supernatants are combined and centrifuged for 30 minutes at 20,000 x g. The 20,000 x g membrane pellet is washed by being resuspended with a Dounce homogenizer in 500 ml of homogenization medium supplemented with 10 mM EDTA (pH readjusted to 7.4) and then washed twice by being resuspended in 25 mM Tris buffer (Sigma Chemical Co.; pH 7.4) and centrifuged for 25 minutes at 20,000 x g. The final membrane pellet is resuspended in 25 mM inhibitor mixture to a protein concentration of 4-12 mg/ml. The resuspended membranes are aliquoted, frozen on dry ice and stored at -90 °C.
# Binding of [¹²⁵I]-labelled b-endorphin, b-endorphin and other b-endorphin analogs and opioids is done in a binding buffer containing 50 mM HEPES (Sigma; pH 7.4; pHed with KOH), 0.1% (w/v) bovine serum albumin (Miles Laboratories, Elkhart, IN) and protease inhibitors as specified below for specific applications. All binding incubations are carried out at room temperature (20-23 °C). • A. Analytical - This assay is carried out in 96 well microtiter plates (Immulon II with snap-off wells; Dynatech, Chantille, VA). To carry out the assay, the following components are added to the wells in the order and volumes shown: (1) […] of nonlabelled ligand. For this purpose, ligands (for example b-endorphin or biotinylated b-endorphin) are made up at 40X the desired final concentration in the 40X P/B/Pz protease inhibitor mixture (Experimental Procedures. 4.C.) (2) […] of [¹²⁵I]b-endorphin in binding buffer + 1/100 volume of the 100X 4Pase protease inhibitor mixture; mix briefly on a microtiter plate shaker (Dynatech Micro-Shaker II, Dynatech, Chantilly, VA). (3) […] of rat brain membrane diluted in binding buffer + […] volume of 100X 4Pase to deliver […] of membrane protein per well. The plates are then covered with Linbro Mylar plate sealers (Flow Labs, McLean, VA) and incubated for 1 hour at room temperature (20-23 °C). The membranes are pelleted by centrifugation at 2,000 x g, the supernatants (containing nonbound ligands) are decanted and the pellets are washed by the addition of […] of ice cold binding buffer, brief shaking and recentrifugation. CPM of [¹²⁵I] in the final membrane pellets is then counted in a gamma counter (LKB Gammamaster 1277; 80% efficiency). • B. Preparative - Rat brain membranes are diluted to a concentration of 0.5 mg of membrane protein/ml in binding buffer containing 1/400 (vol./vol.) of the 400X P/B/Bz protease inhibitor mixture (see Section 4). […] In this case, the blocking ligand is added from 5-15 minutes prior to the addition of biotinyl-b-endorphin. In some cases only the blocking ligand is added. […]
# [2] = target: T1, m-opiate receptor (mOR) cDNA RC8-1 expressed in COS cells (Rattus norvegicus, UniProt P33535); assay type: binding
# T1 construct: expressed in transfected cells; host or cells: COS cells, transient electroporation with pcDNA1RC8-1; membranes
# T1 sequence (P33535 whole entry): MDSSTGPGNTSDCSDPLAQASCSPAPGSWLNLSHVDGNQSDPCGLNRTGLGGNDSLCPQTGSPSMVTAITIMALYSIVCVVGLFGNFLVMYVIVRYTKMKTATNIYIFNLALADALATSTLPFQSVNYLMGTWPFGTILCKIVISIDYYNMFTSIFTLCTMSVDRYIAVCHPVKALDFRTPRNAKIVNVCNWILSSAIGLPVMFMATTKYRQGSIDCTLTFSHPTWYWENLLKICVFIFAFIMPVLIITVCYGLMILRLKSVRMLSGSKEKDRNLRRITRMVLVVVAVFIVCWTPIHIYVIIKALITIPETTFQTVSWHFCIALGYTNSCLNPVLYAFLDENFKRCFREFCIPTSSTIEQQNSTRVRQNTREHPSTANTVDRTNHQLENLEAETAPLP
# [3] = target: T1, m-opiate receptor (mOR) cDNA RC8-1 expressed in COS cells; assay type: binding; remark: listed apart in the source
# [4] = tested on: [¹²⁵I]b-Endorphin: Opioid Receptor Complex; assay: Dissociation of the solubilized R:L complex, measured by binding to WGA-agarose; assay type: biochemical, rat
# [5] = reanalysis, F1 fraction heated at 50°C for 5 min, read-out: IC50 for binding to receptors in rat brain membranes by competition vs. [¹²⁵I]b-endorphin (reanalysis)
# [6] = competition with [¹²⁵I]b-endorphin, rat brain membranes, read-out: IC₅₀s for reduction of radioligand binding by competition with cold ligand
molecule,measurement,setting,value
[biotinyl-Lys³²]b-endorphin [biotinyl-b-endorphin],IC50,[1]; [5],1.8 nM
NaCl,effect of addition to incubations on [³H]DAMGO binding,[2],reduced
[biotinyl-Lys³²]b-endorphin [biotinyl-b-endorphin (F1)],IC50,[1]; [6],1 nM
CN1CC[C@]23CCCC[C@H]2[C@H]1Cc1ccc(O)cc13 [levorphan],potency in displacing [³H]DAMGO binding relative to the pharmacologically inactive isomer,[3],substantially greater potency
b-endorphin,IC50,[1]; [6],1 nM
same,IC50,[1]; [5],1.2 nM
ethylketocyclazocino,potency in displacing binding of [³H]DAMGO,[3],high potency
Nc1nc2c(ncn2[C@@H]2O[C@H](COP(=O)(O)OP(=O)(O)OP(=O)(O)O)[C@@H](O)[C@H]2O)c(=O)[nH]1 [GTP],effect of addition to incubations on [³H]DAMGO binding,[2],reduced
CN1CC[C@]23c4c5ccc(O)c4O[C@H]2[C@@H](O)C=C[C@H]3[C@H]1C5 [Morphine],potency in displacing binding of [³H]DAMGO,[3],high potency
CCC12CCN(CC3(O)CC3)C(Cc3ccc(O)cc31)C2(C)C (centres unmarked) [bromazocino],potency in displacing binding of [³H]DAMGO,[3],high potency
[biotinyl-Lys³²]b-endorphin [biotinyl-b-endorphin (F2)],IC50,[1]; [6],5 nM
Nc1nc2c(ncn2[C@@H]2O[C@H](COP(=O)(O)OP(=O)(O)OP(O)(O)=S)[C@@H](O)[C@H]2O)c(=O)[nH]1 [GTP-g-S],dissociation of receptor from ligand,"[4]; GTP analog alone, without NaCl",about 30%
same,% Decrease in R:L Complex,"[4]; Table 1, 100 mM GTP-g-S, 10 minutes at room temperature",34%
same,% Decrease in R:L Complex,"[4]; Table 2, 100 mM GTP-g-S + 25 mM NaCl",77%
same,% Decrease in R:L Complex,"[4]; Table 2, 100 mM GTP-g-S + 50 mM NaCl",90%
same,% Decrease in R:L Complex,"[4]; Table 2, 100 mM GTP-g-S + 100 mM NaCl",93%
same,% Decrease in R:L Complex,"[4]; Table 2, 100 mM GTP-g-S alone",24%

# — patent publication EP0612845A2 (priority 1993, dated 1994)
